Measurements as given in BindingDB's records for doi:10.7270/Q2959G0B (Nmmlsc, 2009).

Biological target: Ras-related C3 botulinum toxin substrate 1 (Mus musculus, UniProt P63001)
Assay: Rac1 wildtype GTP binding inhibitors, SAR follow-up, biochemical, pyrazoline analogs, multiplex, flow cytometry, Ki (AID 2055)
Details: inactive by the depositor's call

Cc1cccc(C2CC(c3ccccc3)=NN2c2ccc(S(N)(=O)=O)cc2)c1 (stereo unspecified)
EC50: 30 µM

COc1ccc(C2CC(c3ccc(Br)cc3)=NN2c2ccc(S(N)(=O)=O)cc2)cc1 (stereo unspecified) [UNM-0000306138]
EC50: 30 µM

FC(F)(F)c1cccc(N2N=C(c3ccc(Cl)cc3)CC2c2ccccc2Cl)c1 (stereo unspecified) [UNM-0000305859]
EC50: 30 µM

COc1ccc(C2CC(c3cccnc3)=NN2c2ccc(S(N)(=O)=O)cc2)cc1 (stereo unspecified)
EC50: 30 µM

COc1ccc(C2=NN(c3ccccc3)C(c3ccc(OC)c(OC)c3C(=O)O)C2)cc1 (stereo unspecified) [UNM-0000305848]
EC50: 30 µM

NS(=O)(=O)c1ccc(N2N=C(c3ccccc3)CC2c2ccccc2Cl)cc1 (stereo unspecified) [KUC103446N]
EC50: 30 µM

COc1ccc(C2CC(c3ccc(Cl)cc3)=NN2c2ccccc2)cc1OC (stereo unspecified) [UNM-0000305858]
EC50: 30 µM

O=[N+]([O-])c1cccc(C2C[C-](c3ccccc3)N=[N+]2c2ccccc2)c1 (stereo unspecified) [UNM-0000305857]
EC50: 30 µM

Cc1ccccc1N1N=C(c2ccccc2)CC1c1ccc(N(C)C)cc1 (stereo unspecified) [N,N-dimethyl-4-[2-(2-methylphenyl)-5-phenyl-3,4-dihydropyrazol-3-yl]aniline]
EC50: 30 µM

NS(=O)(=O)c1ccc(N2N=C(c3ccccc3)CC2c2ccc(Br)cc2)cc1 (stereo unspecified) [UNM-0000306160]
EC50: 30 µM

Cc1onc(-c2ccccc2)c1-c1ccc(S(N)(=O)=O)cc1
EC50: 30 µM

Cc1ccccc1C1CC(c2ccccc2)=NN1c1ccc(S(N)(=O)=O)cc1 (stereo unspecified) [UNM-0000306148]
EC50: 30 µM

COc1ccc(C2CC(c3ccc(F)cc3)=NN2c2cccc(F)c2)cc1OC (stereo unspecified)
EC50: 0.027 µM

CC(=O)Oc1ccc(C2=NN(c3ccccc3)C(c3ccccc3)C2)cc1 (stereo unspecified)
EC50: 5.65 µM

CN(C)c1ccc(C2CC(c3ccccc3)=NN2c2ccccc2)cc1 (stereo unspecified) [4-(2,5-diphenyl-3,4-dihydropyrazol-3-yl)-N,N-dimethylaniline]
EC50: 30 µM

COc1ccccc1C1CC(c2ccccc2)=NN1c1ccccc1 (stereo unspecified)
EC50: 30 µM

COc1ccc(C2CC(c3cccs3)=NN2c2ccc(S(N)(=O)=O)cc2)cc1 (stereo unspecified) [KUC103438N]
EC50: 30 µM

NS(=O)(=O)c1ccc(N2N=C(c3ccc(Cl)cc3)CC2c2ccccc2)cc1 (stereo unspecified)
EC50: 30 µM

Cc1ccc(-c2cc(C(F)(F)F)nn2-c2ccc(S(N)(=O)=O)cc2)cc1 [Celecoxib]
EC50: 30 µM

COc1ccc(C2CC(c3ccccc3F)=NN2c2ccc(S(N)(=O)=O)cc2)cc1 (stereo unspecified) [UNM-0000306110]
EC50: 30 µM

COc1ccc(C2CC(c3cccc(OC)c3)=NN2c2ccc(S(N)(=O)=O)cc2)cc1 (stereo unspecified) [4-[5-(3-methoxyphenyl)-3-(4-methoxyphenyl)-3,4-dihydropyrazol-2-yl]benzenesulfonamide]
EC50: 30 µM

NS(=O)(=O)c1ccc(N2N=C(c3ccccc3)CC2c2ccc(Cl)cc2)cc1 (stereo unspecified) [4-[3-(4-chlorophenyl)-5-phenyl-3,4-dihydropyrazol-2-yl]benzenesulfonamide]
EC50: 30 µM

COc1ccc(C2CC(C(C)(C)C)=NN2c2ccc(S(N)(=O)=O)cc2)cc1 (stereo unspecified) [KUC103450N]
EC50: 30 µM

NS(=O)(=O)c1ccc(N2N=C(c3ccccc3)CC2c2ccccc2)cc1 (stereo unspecified) [4-(3,5-diphenyl-3,4-dihydropyrazol-2-yl)benzenesulfonamide]
EC50: 30 µM

O=S(=O)(c1ccc(N2N=C(c3ccc(Br)cc3)CC2c2ccccc2)cc1)C(F)F (stereo unspecified) [5-(4-bromophenyl)-2-[4-(difluoromethylsulfonyl)phenyl]-3-phenyl-3,4-dihydropyrazole]
EC50: 30 µM

NS(=O)(=O)c1ccc(N2N=C(c3ccccc3)CC2c2ccccc2Br)cc1 (stereo unspecified) [4-[3-(2-bromophenyl)-5-phenyl-3,4-dihydropyrazol-2-yl]benzenesulfonamide]
EC50: 30 µM

Brc1ccc(N2N=C(c3ccccc3)CC2c2ccccc2)cc1 (stereo unspecified)
EC50: 9.53 µM

COc1ccc(C2=NN(c3ccc(Cl)c(Cl)c3)C(c3ccc(OC)cc3)C2)cc1 (stereo unspecified) [2-(3,4-dichlorophenyl)-3,5-bis(4-methoxyphenyl)-3,4-dihydropyrazole]
EC50: 30 µM

Fc1ccccc1C1CC(c2ccc(Br)cc2)=NN1c1ccc(Br)cc1 (stereo unspecified) [2,5-bis(4-bromophenyl)-3-(2-fluorophenyl)-3,4-dihydropyrazole]
EC50: 30 µM

CN(C)c1ccc(C2C[C-](c3ccccc3)N=[N+]2c2ccc([N+](=O)[O-])cc2)cc1 (stereo unspecified)
EC50: 20.4 µM

NS(=O)(=O)c1ccc(N2N=C(c3ccc(Br)cc3)CC2c2ccc(F)cc2)cc1 (stereo unspecified) [4-[5-(4-bromophenyl)-3-(4-fluorophenyl)-3,4-dihydropyrazol-2-yl]benzenesulfonamide]
EC50: 0.014 µM

Clc1cccc(N2N=C(c3ccccc3)CC2c2ccccc2)c1 (stereo unspecified)
EC50: 30 µM

COc1ccc(C2CC(c3ccccc3OC)=NN2c2ccc(S(N)(=O)=O)cc2)cc1 (stereo unspecified)
EC50: 30 µM

Fc1ccc(C2=NN(c3cccc(Br)c3)C(c3ccccc3)C2)cc1 (stereo unspecified) [2-(3-bromophenyl)-5-(4-fluorophenyl)-3-phenyl-3,4-dihydropyrazole]
EC50: 30 µM

COc1ccc(-c2cc(-c3ccccc3)nn2-c2ccc(S(N)(=O)=O)cc2)cc1 [4-[5-(4-methoxyphenyl)-3-phenylpyrazol-1-yl]benzenesulfonamide]
EC50: 30 µM

Cc1cccc(N2N=C(c3ccccc3)CC2c2ccccc2)c1 (stereo unspecified) [UNM-0000305835]
EC50: 30 µM

COc1ccc(C2CC(c3ccc(Cl)cc3)=NN2c2ccc(S(N)(=O)=O)cc2)cc1 (stereo unspecified)
EC50: 30 µM

COc1ccc(C2=NN(c3ccccc3F)C(c3ccc(F)cc3)C2)cc1 (stereo unspecified) [UNM-0000305860]
EC50: 30 µM

COc1ccc(C2CC(c3ccc(C)cc3)=NN2c2ccc(S(N)(=O)=O)cc2)cc1 (stereo unspecified)
EC50: 30 µM

COc1ccc(C2CC(c3ccsc3)=NN2c2ccc(S(N)(=O)=O)cc2)cc1 (stereo unspecified) [4-[3-(4-methoxyphenyl)-5-thiophen-3-yl-3,4-dihydropyrazol-2-yl]benzenesulfonamide]
EC50: 30 µM

COc1ccc(C2CC(c3ccccc3Br)=NN2c2ccc(S(N)(=O)=O)cc2)cc1 (stereo unspecified) [UNM-0000306112]
EC50: 30 µM

NS(=O)(=O)c1ccc(N2N=C(c3ccccc3)CC2c2cccc(Cl)c2)cc1 (stereo unspecified) [UNM-0000306161]
EC50: 30 µM

COc1ccc(C2CC(C)=NN2c2ccc(S(N)(=O)=O)cc2)cc1 (stereo unspecified) [4-[3-(4-methoxyphenyl)-5-methyl-3,4-dihydropyrazol-2-yl]benzenesulfonamide]
EC50: 30 µM

COc1ccc(C2CC(c3ccccc3)=NN2c2ccc(C(=O)O)cc2)cc1 (stereo unspecified) [UNM-0000306085]
EC50: 30 µM

COc1ccc(C2=NN(c3ccc(Cl)cc3)C(c3ccccc3F)C2)cc1 (stereo unspecified) [UNM-0000305863]
EC50: 30 µM

COc1ccccc1N1N=C(c2ccccc2)CC1c1ccccc1 (stereo unspecified) [UNM-0000305855]
EC50: 30 µM

COc1ccccc1C1CC(c2ccccc2)=NN1c1ccc(S(N)(=O)=O)cc1 (stereo unspecified) [4-[3-(2-methoxyphenyl)-5-phenyl-3,4-dihydropyrazol-2-yl]benzenesulfonamide]
EC50: 30 µM

COc1ccc(C2CC(c3ccc(F)cc3)=NN2c2cc(Cl)ccc2Cl)cc1 (stereo unspecified) [2-(2,5-dichlorophenyl)-5-(4-fluorophenyl)-3-(4-methoxyphenyl)-3,4-dihydropyrazole]
EC50: 0.089 µM

CN(C)c1ccc(C2CC(c3ccc(Cl)cc3)=NN2c2ccccc2)cc1 (stereo unspecified) [UNM-0000305847]
EC50: 30 µM

O=[N+]([O-])c1ccc([N+]2=N[C-](c3ccccc3)CC2c2ccc(O)cc2)cc1 (stereo unspecified) [UNM-0000305838]
EC50: 30 µM

COc1ccc(C2=NN(c3cccc(F)c3)C(c3ccc(OC)cc3)C2)cc1 (stereo unspecified) [2-(3-fluorophenyl)-3,5-bis(4-methoxyphenyl)-3,4-dihydropyrazole]
EC50: 30 µM
